Where “and” joins values, the source holds several entries; their conditions need not be identical. Equal entries are not always repeated.
Legend:
[1] = test system: IL-8 mRNA; experiment: TNF-α-induced IL-8 mRNA in human colonic enteroids (Calgary Protocol); format: cell-based; details: 10 μM, pair-wise vs DMSO
Method: Samples were immediately processed to yield isolated colonic crypts as previously described (Fernando et al, 2017). Isolated colonic crypts were embedded in Matrigel® (Corning) and cultured in Intesticult^tm Organoid Growth Media. Human organoids were pretreated for 6 h with either FKK5, FKK6, FKK9, or vehicle (DMSO), then stimulated with human recombinant TNF‐alpha in the presence of either treatment for an additional 12 h. Organoids were washed in PBS, disrupted in Tri Reagent® (Sigma, Oakville, ON, CAN), and frozen at −80°C. After thawing, chloroform was added, samples were centrifuged for 15 min, and the resulting aqueous phase was then added to equal volumes of 70% ethanol and further processed using the RNeasy mini kit (Qiagen). cDNA was synthesized using the QuantiTect RT kit (Qiagen) according to the manufacturer's protocol. Resulting cDNA was used as a template for quantitative real‐time PCR using Perfecta SYBR Green FastMix with ROX (QuantaBio). PCR and analysis were performed using a StepOne PCR System (Applied Biosystems). Gene expression was calculated relative to β‐actin expression and expressed as fold change of control. The primers used were as follows: Human®‐Actin (NM_001101), Human CYP3A4 (NM_001202855), and Human ABCB1 (NM_000927).

[2] = test system: IL-8 mRNA in HIOs; experiment: IL-8 mRNA in iPSC-derived human intestinal organoids exposed to cytokine cocktail; format: cell-based; set-up: key to IL8 mRNA: relative IL-8 mRNA level, normalized to GAPDH; details: for basal IL-8 expression: 10 and 25 μM; for IL-8 mRNA expression in presence of cytokines: 12 h of exposure; for IL8 mRNA: HIO, triplicate
Method: Caco‐2 cell (ATCC, Manassas, VA) passages 25–35 were maintained and expanded in culture flasks in Dulbecco's modified Eagle's medium (DMEM) with 10% FBS and 1× antibiotic–antimycotic. The cells were kept in a humidified 37°C incubator with 5% CO2. Media were changed every 2–3 days, and cells were passaged 1–2 times a week. For all experiments, Caco‐2 cells (5 × 10^4 cells/ml) were seeded into 12‐well Transwell inserts or coverslips and cultured for 3 weeks. HIOs were generated from iPSCs as described previously (Spence et al, 2011), with some modifications. The iPSC cell line IISH1i‐BM1 (WiCell, Madison, WI) was cultured on Matrigel plates to 80% confluence in mTeSR™ 1 medium (Stem Cell Technologies, Seattle, WA) and differentiated to endoderm using Definitive Endoderm Kit (Stem Cell Technologies., Seattle, WA) for 4 days with daily media changes. Endoderm was then differentiated to hindgut for 5 days with the addition of FGF‐4 (500 ng/ml; Peprotech, Rocky Hill, NJ) and Chir99021 (3 μM; Cayman, Ann Arbor, MI) in RPMI media supplemented with 2% FBS. Floating hindgut spheroids were collected on days 3–5 of hindgut differentiation and suspended in Matrigel beads for HIO differentiation. HIOs were maintained in WENRAS media (Fujii et al, 2015), which maintains proliferation in the culture. Stock HIOs were passaged weekly by removing Matrigel with Cell Recovery Solution (Corning, NY) and mechanically breaking up organoids with pipetting. HIOs were seeded into new Matrigel beads at a 1:3 split, using WENRAS with added Rock Inhibitor Y‐27632 (10 μM) and Chir99021 (3 μM; Cayman., Ann Arbor, MI) for the first 2 days of culture.
HIOs and Caco‐2 were exposed to a pro‐inflammatory cytokine cocktail (10 ng/ml IFN‐γ, 10 ng/ml TNF‐α, 50 ng/ml IL‐1β) for 2–24 h in combination with DMSO or FKK5 and FKK6 compounds (10 and 25 μm). Relative mRNA levels of IL‐8 and IL‐6 were determined using quantitative real‐time PCR, with normalization to GAPDH. RNA was isolated using an RNeasy Mini Kit (Qiagen) as per the manufacturer's instructions. On column DNase (Qiagen) was used to remove any contaminating DNA. Next, cDNA was formed using iScript cDNA Synthesis Kit (Bio‐Rad) and 100 ng RNA. qRT–PCR was performed with SsoAdvanced Universal SYBR Green Kit (Bio‐Rad). The following primers were used: IL‐8 Forward: […]; IL‐8 Reverse: […]; IL‐6 Forward: […]; IL‐6 Reverse: […]; GAPDH Forward: […]; GAPDH Reverse: […]. For immunofluorescent staining of NF‐ĸB translocation to the cell nucleus, HIOs and Caco‐2 cell monolayers were fixed in 4% formaldehyde (in 1 × PBS) overnight at 4°C. The formaldehyde was removed by washing with 1 × PBS, and an antigen retrieval step was performed by incubating in 10 mM sodium citrate buffer in a vegetable steamer for 20 min. The samples were then blocked with normal donkey serum (10% in PBS with 0.3% Triton X‐100) for 1 h. Samples were incubated overnight with primary antibodies: rabbit anti‐NF‐κB p65 (D14E12 # 8242, 1:400 dilution, Cell Signaling Technology, Danvers MA), then immersed in Alexa Fluor® 555 donkey anti‐rabbit secondary antibody (A‐31572, Life Technologies) at a 1:500 dilution. Nuclei were stained with Hoechst 33342 (Life Technologies). The samples were then imaged using a Zeiss LSM880 Confocal/Multiphoton Upright Microscope, with 3‐D image rendering using Volocity. For controls, normal rabbit IgG (#2729S, Life Technologies) was used.

[3] = compound 10µm, no cytokines, 2 hr
[4] = cytokines + compound 10µm, 2 hr
[5] = cytokines + compound 25µm, 2 hr

SMILES: O=C(c1ccncc1)c1cc2ccccc2n1S(=O)(=O)c1ccccc1 [FKK5, (1-(phenylsulfonyl)-1H-indol-2-yl)(pyridin-4-yl)methanone]
- TNF-α-induced IL-8 mRNA levels [1]: significantly lowered
- basal IL-8 expression [2]: no significant effect
- IL-8 mRNA expression in presence of cytokines [2]: significantly reduced
- IL8 mRNA [2, 3]: 18.0113 and 18.2375 and 29.1251
- IL8 mRNA ([2]; compound 25µm, no cytokines, 2 hr): 28.3595 and 38.1574 and 25.5014
- IL8 mRNA [2, 4]: 84.3969 and 82.9774 and 82.3934
- IL8 mRNA ([2]; cytokines + compound 10µm, 12 hr): 1568.63 and 1202.46 and 1346.22
- IL8 mRNA [2, 5]: 91.455 and 107.347 and 106.247
- IL8 mRNA ([2]; cytokines + compound 25µm, 12 hr): 1661.53 and 1048.7 and 891.557

SMILES: C#CCC(O)(c1ccncc1)c1cc2ccccc2n1S(=O)(=O)c1ccccc1 (stereo not drawn) [FKK6]
- TNF-α-induced IL-8 mRNA levels [1]: did not reach statistical significance
- basal IL-8 expression [2]: no significant effect
- IL-8 mRNA expression in presence of cytokines [2]: significantly reduced
- IL8 mRNA [2, 3]: 17.457 and 16.5395 and 13.4302
- IL8 mRNA [2, 4]: 87.755 and 95.5702 and 80.4889
- IL8 mRNA [2, 5]: 19.632 and 32.9894 and 27.3407

— article PMC7136958, “Targeting the pregnane X receptor using microbial metabolite mimicry” (EMBO Molecular Medicine, 2020)
